Source: patent publication US20090075983A1 (priority 2006, published 2009)

Assays:
[1] = biological target: T1, α7-subtype of nicotinic receptors (Rattus norvegicus, UniProt Q05941); assay: biochemical; settings: read-out: Inhibition of 3H-α-Bungarotoxine Binding IC50
T1 construct: Cerebral cortices from male Wistar rats (150-250 g) are homogenised; from tissue; host or cells: rat cerebral cortex membrane homogenate
T1 sequence (Q05941 23-502): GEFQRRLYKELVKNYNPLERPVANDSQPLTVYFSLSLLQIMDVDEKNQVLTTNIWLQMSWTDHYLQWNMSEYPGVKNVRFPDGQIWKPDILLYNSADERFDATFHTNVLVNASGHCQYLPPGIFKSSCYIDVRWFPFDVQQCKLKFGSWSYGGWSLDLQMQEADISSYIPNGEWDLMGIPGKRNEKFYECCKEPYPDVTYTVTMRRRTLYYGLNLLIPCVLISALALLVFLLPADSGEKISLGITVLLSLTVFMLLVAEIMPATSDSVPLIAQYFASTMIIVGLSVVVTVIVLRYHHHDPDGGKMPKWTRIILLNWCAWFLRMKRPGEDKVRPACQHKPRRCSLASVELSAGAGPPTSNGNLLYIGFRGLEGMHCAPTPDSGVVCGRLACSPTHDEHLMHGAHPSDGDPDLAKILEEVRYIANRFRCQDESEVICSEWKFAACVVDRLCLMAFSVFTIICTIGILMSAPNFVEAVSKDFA

SMILES | IC50 [1] [nM] | melting point [°C]
O=C(O)/C=C/C(=O)O.O=C(Oc1ccc(C#Cc2ccccc2)cc1)N1CCN2CCC1CC2 [Compound A1, 1,4-Diaza-bicyclo[3.2.2]nonane-4-carboxylic acid 4-phenylethynyl-phenyl ester fumaric acid salt] | 420 | 160 to 177
Cl.O=C(Nc1ccc(OC(=O)N2CCN3CCC2CC3)cc1)c1ccccc1 [Compound C1, 1,4-Diaza-bicyclo[3.2.2]nonane-4-carboxylic acid 4-benzoylamino-phenyl ester hydrochloric acid salt] | 560 | > 270
